Tested on: PMA-differentiated THP-1 cells
Assay: IL-1β production in PMA-differentiated THP-1 cells stimulated with gramicidin (hTHP-1 assay containing 2% fetal bovine serum; Procedures 1 and 2)
Format: cell-based, human
Details: Homo sapiens, THP-1, Table B3; hTHP-1 assay, 2% fetal bovine serum; class symbols; read-out: IC50
Method in brief: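 Compound titrations in 0.37% final DMSO were added to THP-1 cells that had been plated after 16-18 h PMA treatment, 50,000 per well in 2% FBS. One hour later the cells received gramicidin (5 μM, 2 h) and were centrifuged. HTRF detected IL-1β in the collected supernatants.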

**Q.** Which IC50 does the source give for CCn1cc(F)c(S(N)(=O)=NC(=O)Nc2c3c(nc4c2CC[C@H]4C)CCC3)n1 (stereo partly drawn) [Example 602, 1-Ethyl-4-fuoro-N′-(((R)-3-methyl-1,2,3,5,6,7-hexahydrodicyclopenta[b,e]pyridin-8-yl)carbamoyl)-1H-pyrazole-3-sulfonimidamide] here?
**A.** 0.008 to 0.04 µM

**Q.** How did the IC50 turn out when CC1(C)CCc2c1nc1c(c2NC(=O)N=S(N)(=O)c2cnn3c2OC[C@H](O)C3)CCC1 (stereo partly drawn) [Example 603, (6R)-N′-((3,3-dimethyl-1,2,3,5,6,7-hexahydrodicyclopenta[b,e]pyridin-8-yl)carbamoyl)-6-hydroxy-6,7-dihydro-5H-pyrazolo[5,1-b][1,3]oxazine-3-sulfonimidamide] was run?
**A.** 1 to 5 µM

**Q.** CC1(C)CCc2c1nc1c(c2NC(=O)N=S(N)(=O)c2cnc(C(C)(CO)CO)s2)CCC1 (stereo not shown) [Example 604, 2-(1,3-Dihydroxy-2-methylpropan-2-yl)-N′-((3,3-dimethyl-1,2,3,5,6,7-hexahydrodicyclopenta[b,e]pyridin-8-yl)carbamoyl)thiazole-5-sulfonimidamide] was tested. Which IC50 did it give?
**A.** 0.04 to 0.2 µM

**Q.** For CC(C)(CO)c1ncc(S(N)(=O)=NC(=O)Nc2c3c(nc4c2CCC4(C)C)CCC3)s1 (stereo not shown) [Example 605, N′-((3,3-dimethyl-1,2,3,5,6,7-hexahydrodicyclopenta[b,e]pyridin-8-yl)carbamoyl)-2-(1-hydroxy-2-methylpropan-2-yl)thiazole-5-sulfonimidamide], which IC50 is on record?
**A.** 0.2 to 1 µM

**Q.** Which IC50 does the source give for C[C@@](O)(CO)c1cc(F)c(S(N)(=O)=NC(=O)Nc2c3c(nc4c2CCC42CC2)CCC3)s1 (stereo partly drawn) [Example 607, 5-((R)-1,2-dihydroxypropan-2-yl)-3-fluoro-N′-((1′,5′,6′,7′-tetrahydro-2′H-spiro[cyclopropane-1,3′-dicyclopenta[b,e]pyridin]-8′-yl)carbamoyl)thiophene-2-sulfonimidamide] here?
**A.** 0.2 to 1 µM

**Q.** C[C@](O)(CO)c1cc(F)c(S(N)(=O)=NC(=O)Nc2c3c(nc4c2CCC42CC2)CCC3)s1 (stereo partly drawn) [Example 608, 5-((S)-1,2-dihydroxypropan-2-yl)-3-fluoro-N′-((1′,5′,6′,7′-tetrahydro-2′H-spiro[cyclopropane-1,3′-dicyclopenta[b,e]pyridin]-8′-yl)carbamoyl)thiophene-2-sulfonimidamide] was tested. Which IC50 did it give?
**A.** 0.04 to 0.2 µM

**Q.** CC(C)(O)c1csc(S(N)(=O)=NC(=O)Nc2c3c(nc(C(F)(F)F)c2C2CC2)CCC3)c1 (stereo not shown) [Example 609, N′-((3-cyclopropyl-2-(trifluoromethyl)-6,7-dihydro-5H-cyclopenta[b]pyridin-4-yl)carbamoyl)-4-(2-hydroxypropan-2-yl)thiophene-2-sulfonimidamide] was tested. Which IC50 did it give?
**A.** 0.2 to 1 µM

**Q.** With CC(C)(O)c1cc(F)c(S(N)(=O)=NC(=O)Nc2c3c(nc(C(F)(F)F)c2C2CC2)CCC3)s1 (stereo not shown) [Example 610] as the compound, how does the IC50 read?
**A.** 0.2 to 1 µM

**Q.** With Cc1c(C2(F)CC2)nc2c(c1NC(=O)N=S(N)(=O)c1cc(C(C)(C)O)cs1)CCC2 (stereo not shown) [Example 611, N′-((2-(1-fluorocyclopropyl)-3-methyl-6,7-dihydro-5H-cyclopenta[b]pyridin-4-yl)carbamoyl)-4-(2-hydroxypropan-2-yl)thiophene-2-sulfonimidamide] as the compound, how does the IC50 read?
**A.** 1 to 5 µM

**Q.** How did the IC50 turn out when Cc1c(C2(F)CC2)nc2c(c1NC(=O)N=S(N)(=O)c1sc(C(C)(C)O)cc1F)CCC2 (stereo not shown) [Example 612, 3-Fluoro-N′-((2-(1-fluorocyclopropyl)-3-methyl-6,7-dihydro-5H-cyclopenta[b]pyridin-4-yl)carbamoyl)-5-(2-hydroxypropan-2-yl)thiophene-2-sulfonimidamide] was run?
**A.** 1 to 5 µM

**Q.** For CCn1cc(F)c(S(N)(=O)=NC(=O)Nc2c3c(nc4c2CC[C@@H]4C)CCC3)n1 (stereo partly drawn) [Example 616, 1-Ethyl-4-fluoro-N′-(((S)-3-methyl-1,2,3,5,6,7-hexahydrodicyclopenta[b,e]pyridin-8-yl)carbamoyl)-1H-pyrazole-3-sulfonimidamide], which IC50 is on record?
**A.** 0.2 to 1 µM

**Q.** For Cc1c(CC(F)(F)F)nc2c(c1NC(=O)N=S(N)(=O)c1nn(C(F)F)cc1F)CCC2 (stereo not shown) [Example 617, 1-(Difluoromethyl)-4-fluoro-N′-((3-methyl-2-(2,2,2-trifluoroethyl)-6,7-dihydro-5H-cyclopenta[b]pyridin-4-yl)carbamoyl)-1H-pyrazole-3-sulfonimidamide], which IC50 is on record?
**A.** 5 to 30 µM

**Q.** Which IC50 does the source give for CCn1cc(F)c(S(N)(=O)=NC(=O)Nc2c3c(nc(C4CC4)c2C2CC2)CCC3)n1 (stereo not shown) [Example 618, N′-((2,3-dicyclopropyl-6,7-dihydro-5H-cyclopenta[b]pyridin-4-yl)carbamoyl)-1-ethyl-4-fluoro-1H-pyrazole-3-sulfonimidamide] here?
**A.** 0.04 to 0.2 µM

**Q.** For CCn1cc(F)c(S(N)(=O)=NC(=O)Nc2c(C)c(CC(F)(F)F)nc3c2CCC3)n1 (stereo not shown) [Example 619, 1-Ethyl-4-fluoro-N′-((3-methyl-2-(2,2,2-trifluoroethyl)-6,7-dihydro-5H-cyclopenta[b]pyridin-4-yl)carbamoyl)-1H-pyrazole-3-sulfonimidamide], which IC50 is on record?
**A.** 1 to 5 µM

**Q.** Cc1nc2c(c(NC(=O)N=S(N)(=O)c3nn(C(F)F)cc3F)c1-c1ccccc1)CCC2 (stereo not shown) [Example 620, 1-(Difluoromethyl)-4-fluoro-N′-((2-methyl-3-phenyl-6,7-dihydro-5H-cyclopenta[b]pyridin-4-yl)carbamoyl)-1H-pyrazole-3-sulfonimidamide] was tested. Which IC50 did it give?
**A.** 0.2 to 1 µM

**Q.** How did the IC50 turn out when CC1(C)CCc2c1nc1c(c2NC(=O)N=S(N)(=O)c2nn(C(F)F)cc2F)CCC1 (stereo not shown) [Example 621, 1-(Difluoromethyl)-N′-((3,3-dimethyl-1,2,3,5,6,7-hexahydrodicyclopenta[b,e]pyridin-8-yl)carbamoyl)-4-fluoro-1H-pyrazole-3-sulfonimidamide] was run?
**A.** 0.04 to 0.2 µM

**Q.** With NS(=O)(=NC(=O)Nc1c2c(nc3c1CCC31CC1)CCC2)c1ccn(CCO)n1 (stereo not shown) [Example 622, 1-(2-Hydroxyethyl)-N′-((1′,5′,6′,7′-tetrahydro-2′H-spiro[cyclopropane-1,3′-dicyclopenta[b,e]pyridin]-8′-yl)carbamoyl)-1H-pyrazole-3-sulfonimidamide] as the compound, how does the IC50 read?
**A.** 1 to 5 µM

**Q.** CC1(C)CCc2c1nc1c(c2NC(=O)N=S(N)(=O)c2cc([C@](C)(O)CO)cs2)CCC1 (stereo partly drawn) [Example 623, 4-((S)-1,2-dihydroxypropan-2-yl)-N′-((3,3-dimethyl-1,2,3,5,6,7-hexahydrodicyclopenta[b,e]pyridin-8-yl)carbamoyl)thiophene-2-sulfonimidamide] was tested. Which IC50 did it give?
**A.** 0.2 to 1 µM

**Q.** How did the IC50 turn out when CC1(C)CCc2c1nc1c(c2NC(=O)N=S(N)(=O)c2cc([C@@](C)(O)CO)cs2)CCC1 (stereo partly drawn) [Example 624, 4-((R)-1,2-dihydroxypropan-2-yl)-N′-((3,3-dimethyl-1,2,3,5,6,7-hexahydrodicyclopenta[b,e]pyridin-8-yl)carbamoyl)thiophene-2-sulfonimidamide] was run?
**A.** 0.2 to 1 µM

**Q.** With CC1(C)CCc2nc3c(c(NC(=O)N=S(N)(=O)c4ccc([C@](C)(O)COCCOCc5ccccc5)s4)c21)CCC3 (stereo partly drawn) [Example 625, 5-((R)-1-(2-(benzyloxy)ethoxy)-2-hydroxypropan-2-yl)-N′-((1,1-dimethyl-1,2,3,5,6,7-hexahydrodicyclopenta[b,e]pyridin-8-yl)carbamoyl)thiophene-2-sulfonimidamide] as the compound, how does the IC50 read?
**A.** 1 to 5 µM

**Q.** With CC1(C)CCc2c1nc1c(c2NC(=O)N=S(N)(=O)c2cc(CO)n(CCO)n2)CCC1 (stereo not shown) [Example 626, N′-((3,3-dimethyl-1,2,3,5,6,7-hexahydrodicyclopenta[b,e]pyridin-8-yl)carbamoyl)-1-(2-hydroxyethyl)-5-(hydroxymethyl)-1H-pyrazole-3-sulfonimidamide] as the compound, how does the IC50 read?
**A.** 0.2 to 1 µM

**Q.** For CC(=O)c1csc(S(N)(=O)=NC(=O)Nc2c3c(nc4c2CC[C@H]4C)CCC3)c1 (stereo partly drawn) [Example 627, 4-Acetyl-N′-(((R)-3-methyl-1,2,3,5,6,7-hexahydrodicyclopenta[b,e]pyridin-8-yl)carbamoyl)thiophene-2-sulfonimidamide], which IC50 is on record?
**A.** 0.2 to 1 µM

**Q.** How did the IC50 turn out when CCn1cc(F)c(S(N)(=O)=NC(=O)Nc2c3c(nc4c2CCC42CC2)CCC3)n1 (stereo not shown) [Example 628, 1-Ethyl-4-fluoro-N′-((1′,5′,6′,7′-tetrahydro-2′H-spiro[cyclopropane-1,3′-dicyclopenta[b,e]pyridin]-8′-yl)carbamoyl)-1H-pyrazole-3-sulfonimidamide] was run?
**A.** 0.04 to 0.2 µM

**Q.** CCc1ncc(S(N)(=O)=NC(=O)Nc2c3c(nc4c2CC[C@H]4C)CCC3)s1 (stereo partly drawn) [Example 629, 2-Ethyl-N′-(((R)-3-methyl-1,2,3,5,6,7-hexahydrodicyclopenta[b,e]pyridin-8-yl)carbamoyl)thiazole-5-sulfonimidamide] was tested. Which IC50 did it give?
**A.** 0.2 to 1 µM

Same assay, conditions: Homo sapiens, THP-1, Table B3; hTHP-1 assay, 2% fetal bovine serum; numeric values; read-out: IC50

**Q.** How did the IC50 turn out when Cc1c(C2(C)CC2)nc2c(c1NC(=O)N=S(N)(=O)c1cnc(C(C)(O)CO)s1)CCC2 (stereo not shown) [Example 606, 2-(1,2-Dihydroxypropan-2-yl)-N′-((3-methyl-2-(1-methylcyclopropyl)-6,7-dihydro-5H-cyclopenta[b]pyridin-4-yl)carbamoyl)thiazole-5-sulfonimidamide] was run?
**A.** > 30 µM

**Q.** With CCOC(=O)c1nc2c(c(NC(=O)N=S(=O)(N[Si](C)(C)C(C)(C)C)c3cnc(C(C)(C)O)s3)c1C)CCC2 (stereo not shown) [Example 613, Ethyl 4-(3-(((tert-butyldimethylsilyl)amino)(2-(2-hydroxypropan-2-yl)thiazol-5-yl)(oxo)-l6-sulfaneylidene)ureido)-3-methyl-6,7-dihydro-5H-cyclopenta[b]pyridine-2-carboxylate] as the compound, how does the IC50 read?
**A.** > 30 µM

**Q.** How did the IC50 turn out when CC(C)(O)c1ncc(S(N)(=O)=NC(=O)Nc2cc(C(F)F)nc3c2CCC3)s1 (stereo not shown) [Example 614, N′-((2-(difluoromethyl)-6,7-dihydro-5H-cyclopenta[b]pyridin-4-yl)carbamoyl)-2-(2-hydroxypropan-2-yl)thiazole-5-sulfonimidamide] was run?
**A.** > 30 µM

Same assay, conditions: Table B3; hTHP-1 assay, 2% fetal bovine serum; class symbols; read-out: IC50

**Q.** For NS(=O)(=NC(=O)Nc1c2c(nc(C(F)(F)F)c1C1CC1)CCC2)c1nn(C(F)F)cc1F (stereo not shown) [Example 615, N′-((3-cyclopropyl-2-(trifluoromethyl)-6,7-dihydro-5H-cyclopenta[b]pyridin-4-yl)carbamoyl)-1-(difluoromethyl)-4-fluoro-1H-pyrazole-3-sulfonimidamide], which IC50 is on record?
**A.** 0.2 to 1 µM

Reference: patent publication US20230031406A1, “COMPOUNDS AND COMPOSITIONS FOR TREATING CONDITIONS ASSOCIATED WITH NLRP ACTIVITY” (Novartis AG, priority 2018, published 2023)
